{"source": "patent US20230123497A1", "about": "“NOVEL ANTIBACTERIAL HYDROGELS” (NewSouth Innovations Pty Limited, priority 2020, published 2023)", "key": {"[1]": {"test_system": "HEK 293T cells", "test": "Cytotoxicity, Alamar Blue colorimetric assay", "type": "cell-based", "experimental": "Cytotoxicity measurements were performed using an Alamar Blue colorimetric assay. Each experiment was repeated at least three times. Cells were passaged using standard cell culture procedures. Cells were detached with trypsin and centrifuged (1000 rpm for 3 min). The supernatant was removed and the cells re-suspended in Dulbecco's Modified Eagle Medium (DMEM) at a concentration of 100,000 cells per mL. Cells were seeded at a concentration of 6,000 cells per well. For cytotoxicity measurements, […] of hydrogel made from short-peptide 4 (at 1% w/v and 2% w/v) and short peptides 11, 12, 13, and 16 (at 0.3, 0.6, and 1.0% w/v) were added in triplicate to a 96-well plate and allowed to set overnight. Surrounding wells were supplemented with water to ensure hydration of the gels. Gels were then incubated for 24 h with DMEM. Cells were seeded atop the hydrogels and incubated for 24 hours, before […] of Alamar Blue was added to the wells, followed by further incubation for 4 h. Control wells included cell-free gels, no hydrogels and a negative control of 15% (v/v) DMSO. The absorbances at 570 nm and 596 nm were recorded using a BioRad Benchmark plate reader."}, "[2]": {"test": "Solubility in water", "type": "physicochemical", "settings": "even with vigorous heating", "experimental": "Nitrobenzene-appended short peptide 4 was not soluble in water even with vigorous heating. Therefore, NaOH (2 equivalents) was added to deprotonate the carboxylic acid group at the C-terminus of short peptide 4, generating a sodium carboxylate salt with increased solubility in water. The yellow suspension of short peptide 4 was sonicated for 5 minutes after the addition of alkali, resulting is dissolution and formation of a yellow solution."}, "[3]": {"test": "Hydrogel formation, vial inversion test (critical gel concentration)", "type": "physicochemical", "settings": "solvent switch"}}, "data": [{"smiles": "O=C(Nc1ccccc1C(=O)N[C@@H](Cc1ccccc1)C(=O)N[C@@H](Cc1ccccc1)C(=O)O)c1ccc([N+](=O)[O-])c(C(F)(F)F)c1", "note": "[Compound 4, (2-(4-Nitro-3-(trifluoromethyl)benzamido)benzoyl)-L-phenylalanyl-L-phenylalanine]", "values": [{"measurement": "cell viability", "setting": "[1]; hydrogel 4 at 1% w/v, compared to the control", "value": "more than 90%"}, {"measurement": "cell viability", "setting": "[1]; hydrogel 4 at 2% w/v", "value": "A similar result was observed"}, {"measurement": "solubility in water", "setting": "[2]", "value": "not soluble"}, {"measurement": "Time (gelation time)", "setting": "[3]; DMSO 5 % v/v", "value": "Immed."}, {"measurement": "Time (gelation time)", "setting": "[3]; MeOH 5 % v/v", "value": "Immed."}]}]}
